Laboratory results taken from ChEMBL document CHEMBL3885861, “Open TG-GATES”.

Organism: Rattus norvegicus
Test: Open TG-GATES - Regimen: Daily Repeat
Assay type: toxicity, organism-based, Sprague-Dawley
Design: regimen Daily Repeat, gender Male, age 6 weeks
Conditions: in vivo, po, route gavage; for APTT / Bas / Eos / Fbg / Hb / Ht / Lym / MCH / MCHC / MCV / Mono / Neu / PT / Plat / RBC / Ret / WBC: tissue Blood; for KIDNEY_L / KIDNEY_R / KIDNEY_TOTAL: tissue Kidney; for LIVER: tissue Liver
[1] = 0 mg/kg, […], tissue Plasma, dose level Control, time 28 day
[2] = 100 mg/kg, 72 h, dose level Low, time 3 day
[3] = 100 mg/kg, 72 h, tissue Plasma, dose level Low, time 3 day
[4] = 100 mg/kg, […], dose level Low, time 7 day
[5] = 100 mg/kg, […], dose level Low, time 14 day
[6] = 100 mg/kg, […], dose level Low, time 28 day
[7] = 100 mg/kg, […], tissue Plasma, dose level Low, time 7 day
[8] = 100 mg/kg, […], tissue Plasma, dose level Low, time 14 day
[9] = 100 mg/kg, […], tissue Plasma, dose level Low, time 28 day

O=C(O)c1ccccc1Nc1ccccc1 [FENAMIC ACID]
RALB [1]: 2.8 g/dL | TBIL [1]: 0.05 mg/dL | TC [1]: 64.8 mg/dL | TG [1]: 134.8 mg/dL | TP [1]: 6.2 g/dL | gamma-GTP [1]: 1 IU/L | TERMINAL_BW [2]: 236.5 g | APTT [2]: 15.6 s | Bas [2]: 0.6% | Eos [2]: 1% | Fbg [2]: 286.4 mg/dL | Hb [2]: 13.5 g/dL | Ht [2]: 40.5% | Lym [2]: 79.6% | MCH [2]: 20.9 pg | MCHC [2]: 33.4% | MCV [2]: 62.6 fL | Mono [2]: 2% | Neu [2]: 16.8% | PT [2]: 14.2 s | Plat [2]: 122.4 x10_4/uL | RBC [2]: 647.6 x10_4/ul | Ret [2]: 7.2% | WBC [2]: 82.6 x10_2/uL | KIDNEY_L [2]: 1 g | KIDNEY_R [2]: 1 g | KIDNEY_TOTAL [2]: 2 g | LIVER [2]: 11.2 g | A/G [3]: 0.9 | ALP [3]: 1990.6 IU/L | ALT [3]: 37.6 IU/L | AST [3]: 64.2 IU/L | BUN [3]: 13.8 mg/dL | CRE [3]: 0.2 mg/dL | Ca [3]: 11.7 mg/dL | Cl [3]: 106.2 meq/L | GLC [3]: 184.4 mg/dL | IP [3]: 6.9 mg/dL | K [3]: 4.2 meq/L | LDH [3]: 82 IU/L | Na [3]: 143.6 meq/L | PL [3]: 144.2 mg/dL | RALB [3]: 2.7 g/dL | TC [3]: 75.6 mg/dL | TG [3]: 72.2 mg/dL | TP [3]: 5.6 g/dL | gamma-GTP [3]: 1.2 IU/L | TERMINAL_BW [4]: 277.8 g | TERMINAL_BW [5]: 337.7 g | TERMINAL_BW [6]: 419.6 g | APTT [4]: 16 s | Bas [4]: 0.6% | Eos [4]: 1% | Fbg [4]: 288.2 mg/dL | Hb [4]: 13.4 g/dL | Ht [4]: 39.6% | Lym [4]: 73% | MCH [4]: 20.9 pg | MCHC [4]: 33.9% | MCV [4]: 61.5 fL | Mono [4]: 2.6% | Neu [4]: 22.8% | PT [4]: 13.9 s | Plat [4]: 114.4 x10_4/uL | RBC [4]: 642.8 x10_4/ul | Ret [4]: 5.7% | WBC [4]: 82.6 x10_2/uL | APTT [5]: 16.8 s | Bas [5]: 0.8% | Eos [5]: 1% | Fbg [5]: 308.8 mg/dL | Hb [5]: 14.4 g/dL | Ht [5]: 41.6% | Lym [5]: 75.4% | MCH [5]: 20.8 pg | MCHC [5]: 34.5% | MCV [5]: 60.3 fL | Mono [5]: 2.4% | Neu [5]: 20.2% | PT [5]: 13.7 s | Plat [5]: 118.3 x10_4/uL | RBC [5]: 689.4 x10_4/ul | Ret [5]: 4.5% | WBC [5]: 82.2 x10_2/uL | APTT [6]: 17.2 s | Bas [6]: 0.2% | Eos [6]: 1% | Fbg [6]: 305.2 mg/dL | Hb [6]: 15.1 g/dL | Ht [6]: 43.9% | Lym [6]: 78.2% | MCH [6]: 19.4 pg | MCHC [6]: 34.5% | MCV [6]: 56.2 fL | Mono [6]: 2% | Neu [6]: 18% | PT [6]: 14.3 s | Plat [6]: 103.7 x10_4/uL | RBC [6]: 780.8 x10_4/ul | Ret [6]: 2.6% | WBC [6]: 94 x10_2/uL | KIDNEY_L [4]: 1.2 g | KIDNEY_R [4]: 1.2 g | KIDNEY_TOTAL [4]: 2.3 g | KIDNEY_L [5]: 1.3 g | KIDNEY_R [5]: 1.2 g | KIDNEY_TOTAL [5]: 2.5 g | KIDNEY_L [6]: 1.5 g | KIDNEY_R [6]: 1.5 g | KIDNEY_TOTAL [6]: 3 g | LIVER [4]: 13 g | LIVER [5]: 14.7 g | LIVER [6]: 16.7 g | A/G [7]: 0.9 | ALP [7]: 1790.8 IU/L | ALT [7]: 37 IU/L | AST [7]: 63.4 IU/L | BUN [7]: 13.4 mg/dL | CRE [7]: 0.2 mg/dL | Ca [7]: 11.4 mg/dL | Cl [7]: 105.6 meq/L | GLC [7]: 182 mg/dL | IP [7]: 6.8 mg/dL | K [7]: 4.3 meq/L | LDH [7]: 94.6 IU/L | Na [7]: 142.8 meq/L | PL [7]: 160.6 mg/dL | RALB [7]: 2.7 g/dL | TC [7]: 80.2 mg/dL | TG [7]: 136.8 mg/dL | TP [7]: 5.8 g/dL | gamma-GTP [7]: 1 IU/L | A/G [8]: 0.9 | ALP [8]: 1703.6 IU/L | ALT [8]: 35.6 IU/L | AST [8]: 63.6 IU/L | BUN [8]: 14.2 mg/dL | CRE [8]: 0.3 mg/dL | Ca [8]: 11.1 mg/dL | Cl [8]: 105.2 meq/L | GLC [8]: 179.4 mg/dL | IP [8]: 7 mg/dL | K [8]: 4.2 meq/L | LDH [8]: 95 IU/L | Na [8]: 143.4 meq/L | PL [8]: 158.4 mg/dL | RALB [8]: 2.7 g/dL | TC [8]: 80.8 mg/dL | TG [8]: 109.2 mg/dL | TP [8]: 5.8 g/dL | gamma-GTP [8]: 1 IU/L | A/G [9]: 0.8 | ALP [9]: 1187.4 IU/L | ALT [9]: 33.4 IU/L | AST [9]: 59.2 IU/L | BUN [9]: 14.2 mg/dL | CRE [9]: 0.3 mg/dL | Ca [9]: 11 mg/dL | Cl [9]: 105.6 meq/L | GLC [9]: 179.6 mg/dL | IP [9]: 6.5 mg/dL | K [9]: 3.9 meq/L | LDH [9]: 87 IU/L | Na [9]: 144.6 meq/L | PL [9]: 154.2 mg/dL | RALB [9]: 2.8 g/dL
